In patent US7491707B1, “Synthetic lipid-a-analogs and uses thereof” (Biomira, Inc., priority 1999, dated 2009):

Legend:
[1] = literature bioassays; cited from earlier work
Interferon-gamma (IFN-γ) = Interferon-gamma (IFN-γ) production in cell culture supernatants by ELISA, lymphocytes of mice immunized with adjuvanted MUC1 liposomal vaccine; format: in vivo, C57-Black mice; details: for Interferon-gamma (IFN-γ, pg/ml): s.c. liposomal vaccine 40 μg BP1-148 + 20 μg Lipid-A analog per dose, nine days after injection; for interferon-gamma production: in words, liposomal vaccine formulations in mice, FIG. 31-FIG. 33
Protocol: (§1) Typically, the liposomal formulation was composed of 400 μg of MUC1-based lipopeptide BP1-148, H2N-[…](Pal)G-OH, 200 μg of Lipid-A analog, 6.94 mg of cholesterol, 1.46 mg of dimyristoyl phosphatidylglycerol ([…]) and 11.62 mg of dipalmitoyl phosphatidylcholine (DPPC) per 1 ml of saline (0.9% NaCl solution).
(§2) The liposomal constructs were formulated by first dissolving the phospholipids, cholesterol and Lipid A analog in tert-butanol at about 53° C. Lipopeptide and water (5%, v/v) were then added to the tert-butanol solution. The resulting clear 95% tert-butanol solution was injected into about 4 volumes of rapidly stirred water at about 50° C., using a glass syringe with an 18-gauge needle. The small unilamellar vesicles (SUV) formed in this process were cooled, sterilized by filtration through a 0.22 μm membrane filter, filled into vials and lyophilized. The dry powder was re-hydrated with sterile saline before injection, resulting in the formation of multilamellar large vesicles (MLV). The liposomes formed are used to immunize mice.
(§3) Groups of C57-Black mice were immunized subcutaneously with the liposomal vaccine containing 40 μg of MUC1-based lipopeptide BP1-148 (FIG. 34), which has the peptide sequence of H2N-[…](Pal) G-OH, and 20 μg of Lipid-A analog per dose. Nine days after vaccine injection mice were sacrificed and lymphocytes were taken from the draining lymph nodes (local response) or from the spleens (systemic response) to determine the immune response in each group. The lymphocytes taken from immunized mice were incubated in in vitro cultures in the presence of MUC1-based boosting antigen BP1-151, which has the peptide sequence H2N-[…]-OH.
Interferon-gamma (IFN-γ) levels were determined in the cell culture supernatants using enzyme-linked immunoabsorbent assay (ELISA). 96-Well plates were coated with 50 μl of catcher Mabs in 50 μl of R4.6AZ at 37° C. for 30 min. The plates were then washed and incubated with test samples for 45 min. After two washes the second biotinylated antibody, XMG1.2 was added. After washing, peroxidase-conjugated streptavidin was added and incubated again for 30 min. Finally, 100 μl of horseradish peroxidase (HRPO) substrate solution was added. The optical density was measured with a Thermomax ELISA reader at 405 nm wavelength in kinetic mode for 10 min. The interferon-gamma (IFN-γ) levels corresponding to various Lipid-A analogs are shown in Table 1-Table 3 and FIG. 31-FIG. 33.

T-cell = T-cell proliferation (3H thymidine incorporation) of lymph node lymphocytes from mice immunized with MUC1-based liposomal vaccine adjuvanted with Lipid-A analog; format: in vivo, C57-Black mice; details: for T-cell-Proliferation (CPM): s.c. liposomal vaccine 40 μg BP1-148 + 20 μg Lipid-A analog per dose, nine days after injection, boosting antigen BP1-151; for T-cell blastogenesis: in words, liposomal vaccine formulations in mice, FIG. 31-FIG. 33
Protocol: as §1, §2, §3
T-cell proliferation was evaluated using a standard ^3H thymidine incorporation assay. Briefly, nylon wool passed inguinal lymph node lymphocytes from each mouse were added to a culture containing 106 native mitomycin C treated syngeneic splenocytes, which serves as antigen presenting cells (APCs). To each well 20 μg of MUC1-based boosting peptide BP1-151, H2N-[…]-OH (single letter amino acid code, Table 8), was added for positive control; and cultures containing no antigen or peptide BP1-72, which has the peptide sequence H2N-[…]-OH, were used as negative control. The culture was incubated for 72 h in a total volume of 250 μl well, followed by adding 1 μCi of ^3H-thymidine in a volume of 50 μl. The plates were incubated for an additional 18-20 h. Cells were harvested and [^3H]dTh incorporation was measured by liquid scintillation counter. T-cell proliferation results corresponding to various liposomal vaccines adjuvanted, with different Lipid-A analogs are summarized in Tables 1-Table 3 and FIG. 31-FIG. 33.

[2] = Solubility of Lipid-A analogs for incorporation into liposomes; format: physicochemical; details: in words; given as cause of poor incorporation into liposomes

monophosphoryl Lipid-A
potency on a molar basis in eliciting toxic and pyrogenic responses, compared to diphosphoryl Lipid-A [1]: 1000 times less potent

CCCCCCCCCCCCCC(=O)N[C@@H](CC(=O)N[C@H]1C(O)O[C@H](CO)[C@@H](OP(=O)(O)O)[C@@H]1OC(=O)CCCCCCCCCCCCC)C(=O)NCCCCCCCCC (stereo partly drawn) [Compound 33, 2-Deoxy-4-O-phosphono-2-[(3S)-3-tetradecanamido-4-nonylamino-4-oxo-butanamido]-3-O-tetradecanoyl-α/β-D-glucopyranose]
Interferon-gamma (IFN-γ, pg/ml) (Interferon-gamma (IFN-γ); Table 1, first test group): 0 pg/mL | interferon-gamma production (Interferon-gamma (IFN-γ)): inactive | T-cell-Proliferation (CPM) (T-cell; Table 1, first test group): 822 CPM | T-cell blastogenesis (T-cell): inactive | solubility [2]: poor solubility

CCCCCCCCCCCCCC(=O)N[C@@H](CC(=O)N[C@H]1[C@H](OC[C@H]2OC(O)[C@H](NC(=O)C[C@@H](CCCCCCCCCCC)OC(=O)CCCCCCCCCCCCC)[C@@H](OC(=O)C[C@H](O)CCCCCCCCCCC)[C@@H]2O)O[C@H](CO)[C@@H](OP(=O)(O)O)[C@@H]1OC(=O)C[C@@H](CCCCCCCCCCC)OC(=O)CCCCCCCCCCCCC)C(=O)NCCCCCCCCC (stereo partly drawn) [Compound 77, 2-Deoxy-6-O-{2-deoxy-2-[(3S)-3-tetradecanamido-4-nonylamino-4-oxo-butanamido]-4-O-phosphono-3-O-[(3R)-3-tetradecanoyloxytetradecanoyl]-β-D-glucopyranosyl}-3-O-[(3R)-3-hydroxytetradecanoyl]-2-[(3R)-3-tetradecanoyloxytetradecanamido]-α/β-D-glucopyranose]
Interferon-gamma (IFN-γ, pg/ml) (Interferon-gamma (IFN-γ); Table 2, second test group): 0 pg/mL | interferon-gamma production (Interferon-gamma (IFN-γ)): inactive | T-cell-Proliferation (CPM) (T-cell; Table 2, second test group): 2565 CPM | T-cell blastogenesis (T-cell): inactive | solubility [2]: poor solubility
